Where “and” joins values, the source holds several entries; their conditions need not be identical. Equal values may be shown once. Read-outs that look alike come from different tables or passages of the source.
Test: Pharmacokinetics and bioavailability in rats after single oral and intravenous doses
Type: in vivo, Sprague-Dawley rats
Details: rat; for AUC(0-inf) / Cmax / half-life / AUC / MRT last / bioavailability / CL/F / Tmax: male, Sprague-Dawley, plasma; for AUC: read-out: AUC0-tn; for MRT last: read-out: MRT0-t; for CL/F / Tmax: po
Experimental: Pharmacokinetic and bioavailability studies were carried out in twenty-four male Sprague–Dawley rats. The rats were randomly divided into four groups (n = 6). All of them were fasted for 12 h before administration and were allowed to drink freely. Approximately 300 μl of blood was collected from the posterior canthus venous plexus of each rat into heparinized tubes at 0.1, 0.16, 0.25, 0.5, 1, 2, 4, 8, 12, and 24 h after a single oral administration (i.g.) (12.5, 25, and 50 mg/kg) or at 0.03 h, 0.08, 0.25, 0.5, 1, 2, 4, 6, 8, 12, and 24 h after a single i.v. injection (2 mg/kg). The blood samples were processed to obtain the plasma via centrifugation at 3500 rpm for 10 min and then stored at −80°C until LC–MS/MS analysis.
The plasma samples obtained were processed using the method described in Section 2.4 and then analyzed using the established LC–MS/MS method. The data were processed using MultiQuant 3.0 software. According to the results of the blood drug concentration measurement in rats, the noncompartmental model in DAS 3.2.8 software was used to calculate the corresponding pharmacokinetic parameters, including peak time (Tmax), elimination half-life (T1/2), area under the drug-time curve (AUC0-t, AUC0-∞), maximum plasma concentration (Cmax), apparent volume of distribution (Vz/F), clearance rate (Clz/F), and average residence time (MRT0-t). GraphPad Prism 8 software was used to construct the trend chart of the changes in various parameters in plasma samples based on the measurements to analyze the possible pharmacokinetic characteristics of glytrexate.
If glytrexate has linear kinetic characteristics, the absolute bioavailability can be calculated according to the bioavailability formula, Fabs=(AUCT·Div)/(AUCiv·DT) × 100%, where AUC represents the area under the plasma concentration-time curve. The subscripts T and iv represent oral and intravenous injection, respectively, and D represents the administered dose. The data obtained in the study are expressed as the mean values plus or minus the standard deviation.

Q: Which results are given for `Nc1nc2[nH]c(CC(=O)NCC(=O)N[C@@H](CCC(=O)O)C(=O)O)cc2c(=O)[nH]1` [glytrexate, (S)-2-{2-[2-(2-amino-4-oxo-4,7-dihydro-3H-pyrrolo [2,3-d]pyrimidin-6-yl)-acetylamino]-acetylamino}-pentanedioic acid]?
A: AUC(0-inf) (intravenous 2 mg/kg): 10200 ± 1710 ng·h/mL; Cmax (intravenous 2 mg/kg): 17600 ± 767 ng/mL; half-life (intravenous 2 mg/kg): 2.78 ± 0.26 h; AUC (intravenous 2 mg/kg): 10200 ± 1710 ng·h/mL; MRT last (intravenous 2 mg/kg): 0.91 ± 0.05 h; AUC(0-inf) (oral 12.5 mg/kg): 370 ± 26 ng·h/mL; Cmax (oral 12.5 mg/kg): 107 ± 12.1 ng/mL; half-life (oral 12.5 mg/kg): 2.15 ± 0.16 h; bioavailability (oral 12.5 mg/kg vs intravenous 2 mg/kg, read-out: F (bioavailability)): 0.57 ± 0.08%; AUC (oral 12.5 mg/kg): 362 ± 24.6 ng·h/mL; MRT last (oral 12.5 mg/kg): 3.12 ± 0.14 h; AUC(0-inf) (oral 25 mg/kg): 750 ± 30.2 ng·h/mL; Cmax (oral 25 mg/kg): 496 ± 19.8 ng/mL; half-life (oral 25 mg/kg): 2.25 ± 0.093 h; bioavailability (oral 25 mg/kg vs intravenous 2 mg/kg, read-out: F (bioavailability)): 0.59 ± 0.06%; AUC (oral 25 mg/kg): 750 ± 30.2 ng·h/mL; MRT last (oral 25 mg/kg): 2.95 ± 0.16 h; AUC(0-inf) (oral 50 mg/kg): 2960 ± 190 ng·h/mL; Cmax (oral 50 mg/kg): 1290 ± 109 ng/mL; half-life (oral 50 mg/kg): 2.66 ± 0.15 h; bioavailability (oral 50 mg/kg vs intravenous 2 mg/kg, read-out: F (bioavailability)): 1.15 ± 0.07%; AUC (oral 50 mg/kg): 2960 ± 189 ng·h/mL; MRT last (oral 50 mg/kg): 3.16 ± 0.096 h; bioavailability (oral dose range 12.5–50 mg/kg, read-out: oral bioavailability): 0.57 to 1.15%; CL/F (12.5 mg/kg, oral 12.5 mg/kg): 565 mL/min/kg; Tmax (12.5 mg/kg, oral 12.5 mg/kg, read-out: Tmax): 0.5 h; CL/F (25 mg/kg, oral 25 mg/kg): 556 mL/min/kg; Tmax (25 mg/kg, oral 25 mg/kg, read-out: Tmax): 0.5 h; CL/F (50 mg/kg, oral 50 mg/kg): 282 mL/min/kg; Tmax (50 mg/kg, oral 50 mg/kg, read-out: Tmax): 0.5 h; Tmax (50 mg/kg, single oral administration 12.5, 25 and 50 mg/kg, read-out: Tmax (time of peak blood concentration)): 0.5 h; intravenous AUC of glytrexate relative to pemetrexed (glytrexate 2 mg/kg vs pemetrexed 10 mg/kg): approximately 1.63 fold; intravenous T1/2 of glytrexate relative to pemetrexed (intravenous): approximately 5 fold; Cl/F (intravenous 2 mg/kg): 3.33 ± 0.5 mL/min/kg; V/F (intravenous 2 mg/kg): 0.80 ± 0.15 L/kg; Cl/F (oral 12.5 mg/kg, 12.5 mg/kg): 564.8 ± 42.8 mL/min/kg; V/F (oral 12.5 mg/kg, 12.5 mg/kg): 104.724 ± 6.709 L/kg and 104.72 ± 6.71 L/kg; Cl/F (oral 25 mg/kg, 25 mg/kg): 556.2 ± 22 mL/min/kg; V/F (oral 25 mg/kg, 25 mg/kg): 108.42 ± 7.698 L/kg and 108.42 ± 7.70 L/kg; V/F (oral 50 mg/kg, 50 mg/kg): 64.832 ± 4.529 L/kg and 64.83 ± 4.53 L/kg; time of highest plasma concentration (single i.v. injection 2 mg/kg): 0.03 h

Source: article PMC9577195, “Pharmacokinetics, bioavailability, and plasma protein binding study of glytrexate, a novel multitarget antifolate” (Frontiers in Pharmacology, 2022)
